The results in this text go back to patent US20110262442A1, “COMPOSITIONS FOR TREATING CNS DISORDERS” (Adenios, Inc., priority 2009, published 2011).

One assay has as its system brain endothelial cells. Put plainly: Actin stress fiber induction in brain endothelial cells. Type of assay: cell-based. As for the experimental part:
To test this brain endothelial cells were treated with either CCPA (to agonize A1 adenosine receptors) or […] (to agonize the A2A adenosine receptor).

Assay [1] deals with blood brain barrier. Put plainly: Fluorimetric analysis of labeled dextrans in brain after i.v. drug administration, rats. Type of assay: in vivo. Particulars: i.v. administration, 10,000 Da dextrans. As for the experimental part: C57BL/6 mice from Jackson Laboratories were used as wild types. All mice used were aged 7-9 weeks and weighed between 20-25 g. All rats were aged 8 weeks and weighed 200-220 g. Mice and rats were bred and housed under specific pathogen-free conditions. The adenosine receptor agonists NECA, CCPA and CGS 21860 were purchased from Tocris. Each was dissolved in DMSO then diluted in PBS to the desired concentration; in most cases final DMSO concentrations were <0.5% (vol/vol). For vehicle controls, DMSO was diluted in PBS to the same concentration. Dehydrated dextrans labeled with either FITC or Texas Red were purchased from Invitrogen and re-suspended in PBS to 10 mg ml^-1. All experiments involving dextran injection used 0.5 mg dextran in PBS. In experiments where drug and dextran were injected concomitantly, 0.5 mg of dextran was mixed with the drug to the desired concentration in a final volume of 200 μl. All injections were retro-orbital i.v. with a 27-gauge needle. In the SCH 58261 experiment, groups were administered vehicle or SCH 58261 for 4 d. Vehicle/drug and dextrans were injected on day 5 and tissues were collected 3 h after vehicle/drug administration. […] FITC-dextran was detected at 488/519 (excitation/emission) and Texas Red-dextran was detected at 592/618.

Assay [2] concerns blood brain barrier. Put plainly: Fluorimetric analysis of labeled dextrans in brain after i.v. drug administration. The format is in vivo, mice. The protocol:
C57BL/6 mice from Jackson Laboratories were used as wild types. All mice used were aged 7-9 weeks and weighed between 20-25 g. All rats were aged 8 weeks and weighed 200-220 g. Mice and rats were bred and housed under specific pathogen-free conditions.
The adenosine receptor agonists NECA, CCPA and CGS 21860 were purchased from Tocris. Each was dissolved in DMSO then diluted in PBS to the desired concentration; in most cases final DMSO concentrations were <0.5% (vol/vol). For vehicle controls, DMSO was diluted in PBS to the same concentration. Dehydrated dextrans labeled with either FITC or Texas Red were purchased from Invitrogen and re-suspended in PBS to 10 mg ml^−1. All experiments involving dextran injection used 0.5 mg dextran in PBS. In experiments where drug and dextran were injected concomitantly, 0.5 mg of dextran was mixed with the drug to the desired concentration in a final volume of 200 μl. All injections were retro-orbital i.v. with a 27-gauge needle. In the SCH 58261 experiment, groups were administered vehicle or SCH 58261 for 4 d. Vehicle/drug and dextrans were injected on day 5 and tissues were collected 3 h after vehicle/drug administration. In Lexiscan experiments, Lexiscan was administered i.v. with 3 injections, 5 min apart and tissues were collected at 15 min unless otherwise indicated.
In dose-response experiments and experiments with the A1 AR and A2A AR knock-out mice, drugs and dextrans were injected concomitantly. After 3 h, the mice were anesthetized with ketamine/xylazine and subjected to a nose cone containing isoflurane. They were perfused with 25-50 ml ice-cold PBS through the left ventricle of the heart then decapitated. Their brains were removed, weighed and frozen for later analysis.
Ice-cold 50 mM Tris-Cl (pH 7.6) was added to frozen brains (100 μl per 100 mg brain) and were to thawed on ice. They were homogenized manually with ˜45 strokes of a dounce homogenizer in plastic 1.5 ml microfuge tubes then spun at 16.1 g in a microfuge for 30 min at room temperature (rt). The supernatants were transferred to new tubes and an equal volume absolute methanol was added. The samples were spun again at 16.1 g for 30 min at rt. Supernatant (200 μl) was transferred to a Corning costar 96 well black polystyrene assay plate (clear bottom). Additionally, a series of standards containing 0.001-10 μg ml^−1 dextran in 50% Tris-Cl/50% absolute methanol (vol/vol) was added to each plate. Absolute concentrations of dextrans were derived from these standard curves. Fluorimetric analysis was performed on a BioTek Synergy 4. FITC-dextran was detected at 488/519 (excitation/emission) and Texas Red-dextran was detected at 592/618.

The subject of assay [3] is blood brain barrier. Put plainly: FITC-Dextran extravasation through the brain endothelium (brain sections). The format is in vivo, mice. Particulars: wild type mice, FIG. 16. As for the experimental part: In order to examine the effects of caffeine, a general adenosine receptor antagonist, on blood brain barrier permeability, mice were fed caffeine for several days and then injected with FITC Dextran, commonly used to assess endothelial permeability.
More particularly, mice were fed 0.6 g/l caffeine (Sigma, St. Louis, Mo.) in water or regular water ad lib for five days. Mice were injected IP with FITC Dextran (10,000 MW, Molecular Probes, Eugene, Oreg.) and after 30 minutes mice were perfused with ice cold PBS via the left ventricle. Brains were removed and snap frozen in OCT (Tissue Tek, Torrance, Calif.) and stored at −80° C. until sectioning. Tissue sections (5 μm) were stained with hematoxylin for light microscopy and with DAPI for a fluorescent counterstain.

Assay [4] has as its system ICAM-1 on the choroid plexus. Put plainly: Immunohistochemistry of ICAM-1 expression at the choroid plexus after EAE induction. Type of assay: in vivo. The following applies: wild type mice, day 15 post-EAE induction; 2 mg/kg daily; vs DMSO. From the text: (§1) Cd73^−/− mice have been previously described (Thompson et al., “Crucial Role for Ecto-5′-Nucleotidase (CD73) in Vascular Leakage During Hypoxia,” J. Exp. Med. 200:1395-1405 (2004), which is hereby incorporated by reference in its entirety) and have been backcrossed to C57BL/6 for 14 generations. Cd73 mice have no overt susceptibility to infection and appear normal based on the size and cellular composition of their lymphoid organs and their T and B cell responses in in vivo and in vitro assays (Thompson et al., “Crucial Role for Ecto-5′-Nucleotidase (CD73) in Vascular Leakage During Hypoxia,” J. Exp. Med. 200:1395-1405 (2004), which is hereby incorporated by reference in its entirety). C57BL/6 and tcrα^−/− mice on the C57BL/6 background were purchased from The Jackson Laboratories. Mice were bred and housed under specific pathogen-free conditions at Cornell University or the University of Turku. For adenosine receptor blockade experiments, mice were given drinking water supplemented with 0.6 g/L of caffeine (Sigma) or 2 mg/kg SCH58261 (1 mg/kg s.c. and 1 mg/kg i.p.) in DMSO (45% vol. in PBS) or 45% DMSO alone starting 1 day before EAE induction and continuing throughout the experiment. All procedures performed on mice were approved by the relevant animal review committee. […]

Assay [5] concerns CNS lymphocyte infiltration. Put plainly: Immunohistochemistry of CD4+ infiltrating lymphocytes in brain and spinal cord after EAE induction. Type of assay: in vivo. Particulars: wild type mice, day 15 post-EAE induction; 2 mg/kg daily; vs DMSO treated.
Text: as §1

Assay [6] concerns Experimental Autoimmune Encephalomyelitis (EAE). Put plainly: MOG-induced EAE induction and daily scoring. The format is in vivo, mice. Particulars: wild type mice; 2 mg/kg (1 mg/kg i.p. and 1 mg/kg s.c.) 1 day prior to EAE induction and daily for 30 days; vs DMSO alone. From the text:
Cd73^−/− mice have been previously described (Thompson et al., “Crucial Role for Ecto-5′-Nucleotidase (CD73) in Vascular Leakage During Hypoxia,” J. Exp. Med. 200:1395-1405 (2004), which is hereby incorporated by reference in its entirety) and have been backcrossed to C57BL/6 for 14 generations. Cd73 mice have no overt susceptibility to infection and appear normal based on the size and cellular composition of their lymphoid organs and their T and B cell responses in in vivo and in vitro assays (Thompson et al., “Crucial Role for Ecto-5′-Nucleotidase (CD73) in Vascular Leakage During Hypoxia,” J. Exp. Med. 200:1395-1405 (2004), which is hereby incorporated by reference in its entirety). C57BL/6 and tcrα^−/− mice on the C57BL/6 background were purchased from The Jackson Laboratories. Mice were bred and housed under specific pathogen-free conditions at Cornell University or the University of Turku. For adenosine receptor blockade experiments, mice were given drinking water supplemented with 0.6 g/L of caffeine (Sigma) or 2 mg/kg SCH58261 (1 mg/kg s.c. and 1 mg/kg i.p.) in DMSO (45% vol. in PBS) or 45% DMSO alone starting 1 day before EAE induction and continuing throughout the experiment. All procedures performed on mice were approved by the relevant animal review committee.
EAE was induced by subjecting mice to the myelin oligodendrocyte glycoprotein (“MOG”) EAE-inducing regimen as described in Swanborg, “Experimental Autoimmune Encephalomyelitis in Rodents as a Model for Human Demyelinating Disease,” Clin. Immunol. Immunopathol. 77:4-13 (1995) and Bynoe et al., “Epicutaneous Immunization with Autoantigenic Peptides Induces T Suppressor Cells that Prevent Experimental Allergic Encephalomyelitis,” Immunity 19:317-328 (2003), which are hereby incorporated by reference in their entirety. Briefly, a 1:1 emulsion of MOG35-55 peptide (3 mg/ml in PBS) (Invitrogen) and complete Freund's adjuvant (CFA, Sigma) was injected subcutaneously (50 μl) into each flank. Pertussis toxin (PTX, 20 ng) (Biological Laboratories Inc.) was given intravenously (200 μl in PBS) at the time of immunization and again 2 days later. Mice were scored daily for EAE based on disease symptom severity; 0=no disease, 0.5-1=weak/limp tail, 2=limp tail and partial hind limb paralysis, 3=total hind limb paralysis, 4=both hind limb and fore limb paralysis, 5=death. Mice with a score of 4 were euthanized.

Molecules are shown by their SMILES.

For `CNC(=O)c1cnn(-c2nc(N)c3ncn([C@@H]4O[C@H](CO)[C@@H](O)[C@H]4O)c3n2)c1` [Lexiscan], the “actin stress fibers compared to vehicle alone” value with brain endothelial cells is “induction of actin stress fibers was observed”. Also, the BBB permeability result with blood brain barrier [1] is given as “increased BBB permeability in rats”. Further, the “magnitude of increased BBB permeability compared with NECA administration” value in the assay with blood brain barrier [2] (i.v. administration) is reported as “much greater”. Besides, the “BBB permeability to 10,000 Da dextrans” value in the assay with blood brain barrier [2] (mice, i.v., 3 injections 5 min apart, tissues collected at 15 min) is “increase BBB permeability to 10,000 Da dextrans”. Further, the “time after which FITC-dextran was detectable in the brain” value in the assay on blood brain barrier [2] (mice, single i.v. injection) is 5 min.
For the compound `Nc1nc2c(cnn2CCc2ccccc2)c2nc(-c3ccco3)nn12` [SCH58261, 2-(2-Furanyl)-7-(2-phenylethyl)-7H-pyrazolo[4,3-e][1,2,4]triazolo[1,5-c]pyrimidin-5-amine], the “FITC-Dextran extravasation across the blood brain barrier” value in the assay with blood brain barrier [3] was “inhibit FITC-Dextran extravasation”. The “ICAM-1 expression on the choroid plexus following EAE induction” value in assay [4] is reported as “prevented the up regulation of ICAM-1”. In addition, in assay [5], the “frequency of CD4+ lymphocytes in the brain and spinal cord” value is “significantly lower frequency”. Moreover, the EAE development result in assay [6] was “dramatically protected against EAE development”. In the assay on blood brain barrier [2] (WT mice, intraperitoneal administration for 4 d, dextran on day 5), the “entry of 10,000 Da FITC-dextran into brain” value is on record as “significantly decreased entry”.
